The structures appear in SMILES notation. Active and inactive are the calls of the source. The rule behind the calls is not given here.

The series relates to GENE-TOX genotoxicity assays, various organisms and cells. Briefly: GENE-TOX mutagenicity studies.
The mark [1] stands for this setting: Species/Cell Type: Salmonella typhimurium (one or more of the five standard strains: TA98, TA100, TA1535, TA1537, and TA1538), Assay Type: Histidine reverse gene mutation, Ames assay, Assay Code: SALT, Evaluation Type: Evaluation A (Pre-1980).
[2] abbreviates: Species/Cell Type: Human lymphocytes, Assay Type: Sister-chromatid exchange (SCE) in vivo, Assay Code: SCY+, Evaluation Type: Evaluation B (Post-1980).
The mark [3] stands for this setting: Species/Cell Type: Escherichia coli polA (W3119 vs P3478), Assay Type: Rec-assay, DNA effects (bacterial DNA repair), Assay Code: RE1+, Evaluation Type: Evaluation A (Pre-1980).
Where [4] appears, read: Species/Cell Type: Drosophila melanogaster, Assay Type: Sex-linked recessive lethal gene mutation, Assay Code: SRLT, Evaluation Type: Evaluation A (Pre-1980).
The mark [5] stands for this setting: Species/Cell Type: Mammalian polychromatic erythrocytes, Assay Type: Micronucleus test, chromosome aberrations, Assay Code: MNT+, Evaluation Type: Evaluation B (Post-1980).
Where [6] appears, read: Species/Cell Type: Mammalian polychromatic erythrocytes, Assay Type: Micronucleus test, chromosome aberrations, Assay Code: MNTT, Evaluation Type: Evaluation B (Post-1980).
[7] abbreviates: Species/Cell Type: Arabidopsis species, Assay Type: Gene mutation, Assay Code: ARM-, Evaluation Type: Evaluation A (Pre-1980).

`O=S(=O)(O)c1ccc(N=Nc2ccc(N=Nc3c(O)c(S(=O)(=O)O)cc4cc(S(=O)(=O)O)ccc34)c(S(=O)(=O)O)c2)cc1`: the mutagenic call under setting [1] was “no conclusion”.
Take `C[As]=S` (stereo unspecified): the mutagenic call (Species/Cell Type: Bacillus subtilis (H17 vs M45), Assay Type: Rec-assay, spot test, DNA effects (bacterial DNA repair), Assay Code: REW+, Evaluation Type: Evaluation A (Pre-1980)) is “active; positive”.
`FC(F)OC(F)(F)C(F)Cl` (stereo unspecified): the mutagenic call was “inactive; negative” (Species/Cell Type: Chinese hamster lung (V79) cells, Assay Type: Forward gene mutation at the HPRT or ouabain locus, Assay Code: V79-, Evaluation Type: Evaluation A (Pre-1980)); “active; positive” under setting [2]; “no conclusion” (Species/Cell Type: Mouse, Sex: Male, Assay Type: Sperm morphology, Assay Code: SPIT, Evaluation Type: Evaluation A (Pre-1980)); “no conclusion” (Species/Cell Type: Nonhuman, Assay Type: Sister-chromatid exchange (SCE) in vitro, Assay Code: SC2T, Evaluation Type: Evaluation B (Post-1980)); “no conclusion” under setting [1].
Consider `O=BOO`, for which the mutagenic call under setting [3] is “active; positive”.
As to `CCCCc1nc(Cl)c(CO)n1Cc1ccc(-c2ccccc2-c2nnn[nH]2)cc1`, the mutagenic call under setting [4] was “no conclusion” and the mutagenic call (Species/Cell Type: Drosophila melanogaster, Sex: Male, Assay Type: Heritable translocation test, chromosome aberrations, Assay Code: DHTT, Evaluation Type: Evaluation A (Pre-1980)) is on record as “no conclusion”.
For the molecule `[O-][Br+2]([O-])O`, the mutagenic call under setting [5] is “active; positive”.
Consider `C=CCc1ccc(O)c(OC)c1`, for which the mutagenic call is “no conclusion” (Species/Cell Type: Human lymphocytes, Assay Type: Sister-chromatid exchange (SCE) in vitro, Assay Code: SCLT, Evaluation Type: Evaluation B (Post-1980)); “active; positive” under setting [5]; “no conclusion” (Species/Cell Type: Salmonella typhimurium, Assay Type: Forward and reverse gene mutation, host-mediated assay, Assay Code: HMAT, Evaluation Type: Evaluation A (Pre-1980)).
Regarding `OCN1CCN(CO)C1=S`, the mutagenic call under setting [6] is “no conclusion”.
Take `Cc1ccc2cc3c(c4c2c1CC4)[C@@H](O)[C@@H](O)c1ccccc1-3`: the mutagenic call is “active; positive” (Species/Cell Type: Chinese hamster lung (V79) cells, Assay Type: Forward gene mutation at the HPRT or ouabain locus, Assay Code: V79+, Evaluation Type: Evaluation A (Pre-1980)) and “no conclusion” (Species/Cell Type: Mouse prostate cells, Assay Type: Cell transformation, Assay Code: CTMT, Evaluation Type: Evaluation A (Pre-1980)).
In the case of `CSCCC(N)C(=O)O` (stereo unspecified), under “Species/Cell Type: Escherichia coli polA (W3119 vs P3478), Assay Type: Rec-assay, DNA effects (bacterial DNA repair), Assay Code: RE1T, Evaluation Type: Evaluation A (Pre-1980)”, the mutagenic call is “no conclusion”.
On to `CCCCC(=O)N(C)N=O`, for which, under “Species/Cell Type: Saccharomyces cerevisiae, Assay Type: Reverse gene mutation, Assay Code: YER+, Evaluation Type: Evaluation A (Pre-1980)”, the mutagenic call was “active; positive”.
As for `CCCN(CCC)C(=O)SCC`, the mutagenic call by setting is: (Species/Cell Type: Neurospora crassa, Assay Type: Aneuploidy, chromosome aberrations, Assay Code: NEN-, Evaluation Type: Evaluation A (Pre-1980)) “inactive; negative”; (Species/Cell Type: Zea mays (corn), Assay Type: Gene mutation, Assay Code: ZEM-, Evaluation Type: Evaluation A (Pre-1980)) “inactive; negative”.
Turning to `CS(=O)(=O)OCCO`, the mutagenic call (Species/Cell Type: Arabidopsis species, Assay Type: Gene mutation, Assay Code: ARM+D, Dose Response: With dose response, Evaluation Type: Evaluation A (Pre-1980)) is “active; positive” and the mutagenic call (Species/Cell Type: Hordeum vulgare (barley), Assay Type: Chromosome aberrations, Assay Code: HOC+D, Dose Response: With dose response, Evaluation Type: Evaluation A (Pre-1980)) was “active; positive”.
Regarding `CNC1(c2ccccc2Cl)CCCCC1=O` (stereo unspecified), the mutagenic call under setting [1] is on record as “no conclusion”.
With `Nc1ccc(S(=O)(=O)Nc2nccs2)cc1`, under setting [7], the mutagenic call is “inactive; negative”.
In the case of `CN(C)CCC(=O)c1ccc2c(c1)OCO2`, the mutagenic call (Species/Cell Type: Salmonella typhimurium, Assay Type: Forward and reverse gene mutation, host-mediated assay, Assay Code: HMA-, Evaluation Type: Evaluation A (Pre-1980)) was “inactive; negative”.
For `CCn1cc(C(=O)O)c(=O)c2ccc(C)nc21`, the mutagenic call by setting is: (Species/Cell Type: Bacillus subtilis (H17 vs M45T), Assay Type: Rec-assay, spot test, DNA effects (bacterial DNA repair), Assay Code: REX+, Evaluation Type: Evaluation A (Pre-1980)) “active; positive”; (Species/Cell Type: Drosophila melanogaster, Assay Type: Sex-linked recessive lethal gene mutation, Assay Code: SRL+, Evaluation Type: Evaluation A (Pre-1980)) “active; positive”; under setting [3], “active; positive”; under setting [2], “active; positive”.
In the case of `CC=O`, the mutagenic call was “active; positive” under setting [3]; “active; positive” (Species/Cell Type: Human lymphocytes, Assay Type: Sister-chromatid exchange (SCE) in vitro, Assay Code: SCL+D, Dose Response: With dose response, Evaluation Type: Evaluation A (Pre-1980)); “active; positive” (Species/Cell Type: Human, Assay Type: Sister-chromatid exchange (SCE) in vitro, Assay Code: SC1+D, Dose Response: With dose response, Evaluation Type: Evaluation A (Pre-1980)); “active; positive” (Species/Cell Type: Nonhuman, Assay Type: Sister-chromatid exchange (SCE) in vitro, Assay Code: SC2+, Evaluation Type: Evaluation A (Pre-1980)); “active; positive” (Species/Cell Type: Nonhuman, Assay Type: Sister-chromatid exchange (SCE) in vivo, Assay Code: SC3+D, Dose Response: With dose response, Evaluation Type: Evaluation B (Post-1980)).
For the molecule `CCCCCOC(=O)COc1cc(Cl)c(Cl)cc1Cl`, the mutagenic call (Species/Cell Type: Saccharomyces cerevisiae, Assay Type: Mitotic recombination or gene conversion, Assay Code: YEC-, Evaluation Type: Evaluation A (Pre-1980)) was “inactive; negative”.
Turning to `O=C(N[C@H](CO)[C@H](O)c1ccc([N+](=O)[O-])cc1)C(Cl)Cl`, the mutagenic call is, setting by setting: under setting [7], “inactive; negative”; (Species/Cell Type: Bacillus subtilis (H17 vs M45), Assay Type: Rec-assay, spot test, DNA effects (bacterial DNA repair), Assay Code: REW-, Evaluation Type: Evaluation A (Pre-1980)) “inactive; negative”; (Species/Cell Type: Bacillus subtilis (H17 vs M45T), Assay Type: Rec-assay, spot test, DNA effects (bacterial DNA repair), Assay Code: REXT, Evaluation Type: Evaluation A (Pre-1980)) “no conclusion”; under setting [4], “no conclusion”; (Species/Cell Type: Escherichia coli WP2, Assay Type: Tryptophan reverse gene mutation, Assay Code: WP2-, Evaluation Type: Evaluation A (Pre-1980)) “inactive; negative”; (Species/Cell Type: Escherichia coli polA (W3110 vs P3478), Assay Type: Rec-assay, DNA effects (bacterial DNA repair), Assay Code: RE2-, Evaluation Type: Evaluation A (Pre-1980)) “inactive; negative”. Moreover, the mutagenic call is “inactive; negative” (Species/Cell Type: Escherichia coli polA (W3119 vs P3478), Assay Type: Rec-assay, DNA effects (bacterial DNA repair), Assay Code: RE1-, Evaluation Type: Evaluation A (Pre-1980)); “active; positive” (Species/Cell Type: Rodents, Sex: Male, Assay Type: Dominant lethal test, Assay Code: DLT+, Evaluation Type: Evaluation A (Pre-1980)); “inactive; negative” (Species/Cell Type: Salmonella typhimurium (one or more of the five standard strains: TA98, TA100, TA1535, TA1537, and TA1538), Assay Type: Histidine reverse gene mutation, Ames assay, Assay Code: SAL-, Evaluation Type: Evaluation A (Pre-1980)). For the same molecule, the call (Species/Cell Type: Nonhuman, Assay Type: In vivo carcinogenicity studies, Assay Code: CCGT, Evaluation Type: Evaluation A (Pre-1980)) is “no conclusion”.
As to `CC(=O)Nc1ccc([C@@H]2O[C@H]2c2ccccc2)cc1`, under setting [1], the mutagenic call is listed as “no conclusion”.
With `CC(=O)Nc1ccc(OCC(O)CNC(C)C)cc1` (stereo unspecified), the mutagenic call is, setting by setting: under setting [6], “no conclusion”; (Species/Cell Type: Mouse, Sex: Male, Assay Type: Sperm morphology, Assay Code: SPI-, Evaluation Type: Evaluation A (Pre-1980)) “inactive; negative”.
In the case of `Nc1c(F)cc(-c2cc(F)c(N)c(F)c2)cc1F`, the mutagenic call is “active; positive” (Species/Cell Type: Human diploid fibroblasts, Assay Type: Unscheduled DNA synthesis (UDS) in vitro, DNA effects, Assay Code: UDH+*, Activation: With metabolic activation, Evaluation Type: Evaluation A (Pre-1980)); “active; positive” (Species/Cell Type: Salmonella typhimurium (one or more of the five standard strains: TA98, TA100, TA1535, TA1537, and TA1538), Assay Type: Histidine reverse gene mutation, Ames assay, Assay Code: SAL+*, Activation: With metabolic activation, Evaluation Type: Evaluation A (Pre-1980)).
On to `Nc1nc(N)nc(-c2ccc([N+](=O)[O-])o2)n1`, for which the mutagenic call (Species/Cell Type: Salmonella typhimurium (one or more of the five standard strains: TA98, TA100, TA1535, TA1537, and TA1538), Assay Type: Histidine reverse gene mutation, Ames assay, Assay Code: SAL+, Evaluation Type: Evaluation A (Pre-1980)) is “active; positive”.
As for `CON(C)C(=O)Nc1ccc(Br)cc1`, the mutagenic call (Species/Cell Type: Hordeum vulgare (barley), Assay Type: Chromosome aberrations, Assay Code: HOC-, Evaluation Type: Evaluation A (Pre-1980)) is “inactive; negative”.
As to `CC[C@@]1(O)C[C@H](O[C@H]2C[C@H](NC)[C@H](O)[C@H](C)O2)c2c(cc3c(c2O)C(=O)c2c(O)cccc2C3=O)[C@H]1C(=O)OC`, the mutagenic call under setting [1] is “no conclusion”.
For `Nc1cccc2c1C(=O)c1c(NCCNCCO)ccc(NCCNCCO)c1C2=O`, the mutagenic call (Species/Cell Type: Nonhuman, Assay Type: Sister-chromatid exchange (SCE) in vitro, Assay Code: SC2+D, Dose Response: With dose response, Evaluation Type: Evaluation B (Post-1980)) is “active; positive”.
Consider `CCN(CC)Cc1cc(Br)ccc1OCC(=O)N/N=C\c1ccc(OC)cc1`, for which, where the note is “Species/Cell Type: Saccharomyces cerevisiae, Assay Type: Reverse gene mutation, Assay Code: YERT, Evaluation Type: Evaluation A (Pre-1980)”, the mutagenic call is “no conclusion”.

(Values after PubChem BioAssay AID1259408 (Genetic Toxicology Data Bank (GENE-TOX), 2018).)
